{"source": "patent US7303758B2", "about": "(Cordis Corporation, priority 2004, dated 2007)", "key": {"[1]": {"assay": "In vivo release kinetics from PVDF basecoat with PVDF topcoat, porcine pharmacokinetics studies", "details": "six hundred micro grams basecoat, two hundred micro grams topcoat", "text": "The topcoat is two hundred micro grams."}, "[2]": {"assay": "In vivo release kinetics from EVA/BMA basecoat, porcine pharmacokinetics studies", "details": "basecoat 180 μg rapamycin, 180 μg mycophenolic acid, 240 μg EVA/BMA, with or without BMA topcoat"}, "[3]": {"tested_on": "non-synchronized cultured human coronary artery smooth muscle cells", "assay": "Anti-proliferative activity of rapamycin with varying mycophenolic acid concentrations", "type": "cell-based", "details": "mycophenolic acid zero to one thousand nano molar, two percent fetal bovine serum", "text": "The multiple curves represent various concentrations of mycophenolic acid ranging from zero to one thousand nano molar concentrations. […] This potentiation observed in cultured coronary artery smooth muscle cells preferably translates to an enhancement in anti-restenotic efficacy following vascular injury and a reduction in the required amount of either agent to achieve the desired anti-restenotic effect."}, "tumor cell lines": {"tested_on": "tumor cell lines", "details": "cited from earlier work"}, "[4]": {"tested_on": "human coronary artery smooth muscle cell proliferation", "assay": "In vitro cell culture study of coronary artery smooth muscle cell proliferation", "type": "cell-based", "text": "FIG. 51 is a graph of the inhibition of coronary artery smooth muscle cells by trichostatin A in a cell culture study."}}}
{"smiles": "CO[C@H]1C[C@@H]2CC[C@@H](C)[C@@](O)(O2)C(=O)C(=O)N2CCCC[C@H]2C(=O)O[C@H]([C@H](C)C[C@@H]2CC[C@@H](O)[C@H](OC)C2)CC(=O)[C@H](C)/C=C(\\C)[C@@H](O)[C@@H](OC)C(=O)[C@H](C)C[C@H](C)/C=C/C=C/C=C/1C", "note": "[Rapamycin, rapamycin]", "values": [{"measurement": "in vivo release rate from PVDF basecoat with PVDF topcoat", "setting": "[1]", "value": "slower release rate than that of mycophenolic acid"}]}
{"smiles": "COc1c(C)c2c(c(O)c1C/C=C(\\C)CCC(=O)O)C(=O)OC2", "note": "[mycophenolic acid]", "values": [{"measurement": "in vivo release from EVA/BMA basecoat", "setting": "[2]", "value": "elutes more completely over a shorter duration than the rapamycin"}, {"measurement": "effect on anti-proliferative rapamycin dose response curve", "setting": "[3]", "value": "potentiates the anti-proliferative activity of rapamycin"}]}
{"smiles": "CC(/C=C/C(=O)NO)=C\\[C@@H](C)C(=O)c1ccc(N(C)C)cc1", "note": "[trichostatin A]", "values": [{"measurement": "anti-proliferative IC50", "setting": "tumor cell lines", "value": "low nM range"}, {"measurement": "IC50", "setting": "[4]; human coronary artery smooth muscle cells, read-out: anti-proliferative IC50", "value": "~6", "unit": "nM"}, {"measurement": "inhibition of human coronary artery smooth muscle cell proliferation", "setting": "[4]; in vitro cell culture", "value": "completely inhibit"}]}
